Test results reported in patent US20240065988A1, “COMBINED USE OF KETAMINE AND RETIGABINE (EZOGABINE) FOR THE TREATMENT OF PSYCHIATRIC DISORDERS” (Yeda Research and Development Co. Ltd., priority 2021, published 2024).

System: Kcnq2 mRNA in glutamatergic neurons of the vHipp
Assay: qPCR mRNA levels in FACS-sorted glutamatergic neurons (Ai9+/tdTomato+) and remaining cells (Ai9-/tdTomato-) of Nex-Cre-Ai9 mice
Format: in vivo, mouse
Settings: for mRNA levels of 8 top DEGs: ketamine vs saline
Text: Conditional transgenic mice expressing tdTomato in glutamatergic neurons of the forebrain (Nex-Cre;Ai9) were generated by crossing homozygous Nex-Cre mice [described in S. Goebbels et al., Genesis (2006) 44: 611-621] with homozygous Ai9 mice [Gt(ROSA)26Sortm9(CAG-tdTomato)Hze] [described in L. Madisen et al., Nat Neurosci (2010) 13: 133-140].
In order to further investigate these findings, a conditional reporter mouse line (Nex-Cre-Ai9) was generated where most glutamatergic neurons of the forebrain, including the hippocampus, are fluorescently labeled by tdTomato (Ai9) except for neurons in the dentate gyrus where Neurod6, the promoter used to target glutamatergic neurons driving Cre expression, is not expressed (FIG. 12) [J. Hartmann et al., Mol Psychiatry (2017) 22: 466-475]. Following the same paradigm used in the original cohort, mice were group-housed and injected with (R,S)-ketamine (10 mg/kg BW) or a saline vehicle control. The vHipp of these mice was dissected […] later (i.e. 2 days). Single-cell suspensions were prepared and individual cells were sorted using fluorescence activated cell sorting (FACS) (FIG. 2A) into two separate pools of cells from each mouse. One pool contained glutamatergic neurons (Ai9+) and a second contained all remaining cell types of the vHipp (Ai9-) (FIG. 2A and FIGS. 13A-C). […] These two separate pools of cells were then used to validate the scRNA-seq findings in glutamatergic neurons at the population level using quantitative real-time polymerase chain reaction (qPCR).
Next, it was tested whether retigabine can produce similar synergistic effects in combination with traditional antidepressants.

CNC1(c2ccccc2Cl)CCCCC1=O (racemic) [ketamine, (R,S)-ketamine]
Kcnq2 mRNA fold change (FC) after ketamine treatment (Ai9+ cells, ketamine 10 mg/kg BW vs saline, 36 hours, p<0.001): 2.2 | mRNA levels of 8 top DEGs (Ai9+ cells): significantly dysregulated | mRNA levels of 8 top DEGs (Ai9- cells): No significant differences | mRNA expression of Kcnq3 after ketamine treatment (any of the experiments: scRNA-seq, FACS-sorted cells, primary neurons (Table 2B, FIGS. 17A-C)): no significant differences | Kcnq2 mRNA (glutamatergic neurons (tdTomato+) of the vHipp, two days after treatment, ketamine 10, escitalopram 10, retigabine 1 mg/kg/BW): significant increase of Kcnq2 mRNA | total number of Ai9+ sorted cells, ketamine vs saline (ketamine 10 mg/kg BW, 36 hours): No significant differences
